According to PMC12451337 (ESMO Open, 2025):
Where “and” joins values, the source holds several entries; their conditions need not be identical. Identical values can stand only once. Values belong to the molecule of their own block, whether it stands above or below them.

Columns and labels:
clinical = conditions: human, oral
Procedure: (§1) Blood was obtained from all patients and collected in anticoagulant tubes (K2-EDTA). Plasma samples were stored at −80°C until analysis (both drugs were validated as stable under these storage conditions). The PK analysis population included all patients who received at least one dose of AMXT 1501 and had at least one quantifiable AMXT 1501 plasma concentration postdose.

polyamine transport = test system: polyamine transport; design: method as in PMID 19281226; conditions: without crossing the cell membrane; cited from earlier work
tumor cells in culture = assay: Predicted ED95 against tumor cells in culture (nonclinical data); format: cell-based
[1] = Pharmacokinetics in patients (plasma and tumor biopsy, LC-MS/MS)
Procedure: as §1

[2] = test system: patients with advanced solid tumors; assay: Phase I dose-escalation trial: safety and tolerability (TEAEs, DLTs, MTD, RP2D)
Procedure: The study was carried out in compliance with the International Council for Harmonisation Good Clinical Practices, including the ethical principles of the Declaration of Helsinki. All patients provided signed informed consent before any study-specific procedures were carried out.
For determination of dose escalation, all toxicities, all available PK, and other relevant patient data occurring during the first cycle were considered. In addition, safety in patients ongoing in repeat cycles at lower doses was also taken into consideration by the Cohort Review Committee (CRC; consisting of investigators and the medical monitor), when making dose-escalation decisions. The determination of RP2D included the assessment of acute and chronic toxicities and tolerability (missing doses, dose reductions, etc.) and was informed by the experience of the totality of data. The maximum tolerated dose (MTD) was defined as the highest dose level at which one or fewer of six patients experienced dose-limiting toxicities (DLTs). […] A dose reduction at or after cycle 2 was granted in accordance with dose modification guidelines if, in the opinion of the investigator, a dose reduction was in the best interest of the patient.
Safety was monitored throughout the study.

[3] = test system: polyamine transport in T cells; assay: Whole blood assay: uptake of fluorescently labeled spermine analog by activated T cells (flow cytometry); format: cell-based, human
Procedure: To evaluate the target engagement activity of AMXT 1501 after administration, an ex vivo pharmacodynamic assay assessing lymphocyte spermine uptake and inhibition of uptake by AMXT 1501 was developed.
The purpose of the whole blood assay is to quantify the inhibition of polyamine transport in T cells in human subjects receiving AMXT 1501. Whole blood collected from subjects receiving AMXT 1501 was diluted with serum-free media and stimulated with anti-CD3 and anti-CD28 to drive T-cell activation and proliferation for a total of 3 days. During the last 12-18 h of culture, a fluorescently labeled spermine analog (compound 5)[38] was added to the in vitro culture to monitor polyamine uptake into cells. The functional activity (inhibitory effect) of AMXT 1501 on compound 5 uptake by T cells is then determined using flow cytometry by measuring the frequency and mean fluorescence intensity of compound 5+ T cells. Comparisons were made between the uptake in the pretreatment sample and samples taken over time postdose.
An ex vivo blood-based pharmacodynamic assay was developed to measure the inhibition of uptake of a fluorescently labeled polyamine analog by AMXT 1501 into activated CD4+ lymphocytes in culture. Using a fluorescence-activating cell sorting system, tracking of the cellular uptake of the fluorescence of this labeled polyamine was followed after CD3/CD28 activation.

[4] = whole human blood samples treated with 0-2000 nM AMXT 1501, absence of DFMO

Compound: CCCCCCCCCCCCCCCC(=O)NCCCC[C@@H](N)C(=O)NCCCNCCCCNCCCN [AMXT 1501, AMXT 1501 dicaprate]
Kp (clinical; tumor biopsy / plasma): 12
concentration at 30 days of treatment (clinical; tumor biopsy): 3480 ng/mL and 6.12 µM
Blocks cellular uptake of spermidine (polyamine transport): nanomolar range
predicted effective dose 95% (ED95) (tumor cells in culture; in combination with DFMO, nonclinical data): 100 nM
AMXT 1501 exposure based on mean Cmax versus dose ([1]; human, in vivo): near dose-proportional
Accumulation of AMXT 1501 after repeat dosing ([1]; human, in vivo): up to 10 fold
Effect of DFMO administration on AMXT 1501 exposure ([1]; human, in vivo): no consistent effect
Predose AMXT 1501 plasma concentration ([1]; human, in vivo): 296 ng/mL
AMXT 1501 steady state obtained by ([1]; human, in vivo, po): cycle 1 day 14
AMXT 1501 dose relationship with proportions of patients with TEAEs, treatment-related TEAEs or SAEs, discontinuation, dose interruption ([2]; human, in vivo): no strong evidence for any AMXT 1501 dose relationship
RP2D of AMXT 1501 in the combination ([2]; in combination with DFMO 500 mg b.i.d.): 600 mg b.i.d.
MTD ([2]; part 1, when given with DFMO 250 mg b.i.d.): 1800 mg o.d.
Part 1 AMXT 1501 recommended phase II dose (RP2D) ([2]; part 1, with DFMO 250 mg b.i.d.): 1800 mg o.d.
Inhibition of fluorescent marker transport with DFMO added to the culture ([3]; DFMO added to the culture): still able to potently inhibit this transport
Target engagement in samples taken over time following dosing versus pretreatment ([3]; ex vivo, patients' blood after oral dosing): sustained AMXT 1501 target engagement activity
Concentration of maximal fluorescent-labeled spermine uptake inhibition [3, 4]: 250 nM
half maximum inhibitory concentration (ED50) [3, 4]: ~75 nM

DFMO exposure versus dose ([1]; between the 500 and 1000 mg/day dose levels): approximately dose-proportional
Change in DFMO exposure with repeat dosing ([1]; human, in vivo): no substantial change
Effect of AMXT 1501 dose level on DFMO exposure ([1]; human, in vivo): no apparent effect
Achievement of predicted DFMO ED95 concentration (100 μM) by oral delivery ([1]; in combination with AMXT 1501): unable to achieve this level
Compound: NCCCC(N)(C(=O)O)C(F)F (centres unmarked) [DFMO, difluoromethylornithine, reference compound]
predicted ED95 concentration (tumor cells in culture): 100 μM and 18 200 ng/ml
Effect of DFMO addition on uptake of the fluorescent marker ([3]; addition to the culture): increased the uptake of the fluorescent marker
